Source: patent US9163021B2, “Pyrrolo[3,2-c]pyridine tropomyosin-related kinase inhibitors” (Pfizer Limited, priority 2012, dated 2015)

Target: TRKA (Homo sapiens (Human), UniProt P04629)
Test: Isolated TRK enzyme assay (HTRF KinEASE-TK), PV3144 TrkA enzyme assay
Assay type: biochemical
Conditions: arithmetic mean where more than one reading
Method in brief: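 Kinase (recombinant His-TrkA cytoplasmic domain, ATP-preactivated 20 min) met compound 20 min, then biotinylated TK substrate (1 µM final) with Mg2+/DTT buffer; HTRF detection.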

Chain of TRKA (P04629 441-796): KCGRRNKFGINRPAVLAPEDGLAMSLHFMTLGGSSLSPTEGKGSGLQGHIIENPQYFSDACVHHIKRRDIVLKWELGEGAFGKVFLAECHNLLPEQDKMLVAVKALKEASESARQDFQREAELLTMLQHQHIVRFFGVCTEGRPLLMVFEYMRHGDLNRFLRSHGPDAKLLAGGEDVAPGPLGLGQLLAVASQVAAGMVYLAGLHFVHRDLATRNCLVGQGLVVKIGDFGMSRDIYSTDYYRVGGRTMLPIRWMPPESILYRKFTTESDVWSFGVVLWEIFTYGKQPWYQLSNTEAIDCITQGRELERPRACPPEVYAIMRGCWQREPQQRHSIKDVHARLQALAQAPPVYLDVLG

Row | Compound | IC50
1 | CC(C)(CO)n1cc(C(=O)c2cncc(NC(=O)Cc3cccc(C(F)(F)F)c3)c2)c2cnccc21 [Example 235, N-(5-{[1-(1-hydroxy-2-methylpropan-2-yl)-1H-pyrrolo[3,2-c]pyridin-3-yl]carbonyl}pyridin-3-yl)-2-[3-(trifluoromethyl)phenyl]acetamide] | 2.87 nM
2 | CC(C)(CO)n1cc(C(=O)c2cncc(NC(=O)Cn3ccc(C(F)(F)F)n3)c2)c2cnccc21 [Example 236, N-(5-{[1-(1-hydroxy-2-methylpropan-2-yl)-1H-pyrrolo[3,2-c]pyridin-3-yl]carbonyl}pyridin-3-yl)-2-[3-(trifluoromethyl)-1H-pyrazol-1-yl]acetamide] | 43.1 nM
3 | CC(C)(CO)n1cc(C(=O)c2cncc(NC(=O)Cn3cc(C4CC4)nn3)c2)c2cncc(F)c21 [Example 240, 2-(4-cyclopropyl-1H-1,2,3-triazol-1-yl)-N-(5-{[7-fluoro-1-(1-hydroxy-2-methylpropan-2-yl)-1H-pyrrolo[3,2-c]pyridin-3-yl]carbonyl}pyridin-3-yl)acetamide] | 24 nM
4 | N-(2-{[1-(1-hydroxypropan-2-yl)-1H-pyrrolo[3,2-c]pyridin-3-yl]carbonyl}pyridin-4-yl)-2-[4-(trifluoromethyl)phenyl]acetamide [Example 84] | 141 nM
5 | N-(4-{[1-(propan-2-yl)-1H-pyrrolo[3,2-c]pyridin-3-yl]carbonyl}pyridin-2-yl)-2-[4-(trifluoromethoxy)phenyl]acetamide [Example 168] | 14.7 nM
6 | N-(5-{[7-fluoro-1-(1-hydroxypropan-2-yl)-1H-pyrrolo[3,2-c]pyridin-3-yl]carbonyl}pyridin-3-yl)-2-[4-(trifluoromethyl)-1H-1,2,3-triazol-1-yl]acetamide [Example 214] | 93.1 nM
7 | N-(5-{[7-fluoro-1-(1-hydroxypropan-2-yl)-1H-pyrrolo[3,2-c]pyridin-3-yl]carbonyl}pyridin-3-yl)-2-[4-(trifluoromethyl)phenyl]acetamide [Example 209] | 264 nM
